In assay [1] the target is T1, Ou IAD (indoleacetate decarboxylase from Olsenella uli) (Olsenella uli, UniProt E1QXZ2).
T1 construct: gene Olsu_0124; purified; glycyl radical installed by Ou IAD-AE with SAM; catalytic Gly853 and Cys500; tags and host only in supplement
Briefly: inhibition in assays with I3A. Conditions: partial competitive inhibitor versus I3A, not consumed. The format is biochemical.

The target of assay [2] is T2, Cs HPAD (hydroxyphenylacetate decarboxylase) (Clostridium scatologenes, UniProt Q38HX4).
T2 construct: gene csdB; glycyl radical enzyme; residues Cys503, Glu505, Glu637; with 4-hydroxyphenylacetate decarboxylase small subunit
T2 sequence (Q38HX3 whole entry): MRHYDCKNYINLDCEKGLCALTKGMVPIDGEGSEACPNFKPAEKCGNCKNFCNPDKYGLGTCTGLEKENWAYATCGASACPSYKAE
T2 sequence (Q38HX4 whole entry): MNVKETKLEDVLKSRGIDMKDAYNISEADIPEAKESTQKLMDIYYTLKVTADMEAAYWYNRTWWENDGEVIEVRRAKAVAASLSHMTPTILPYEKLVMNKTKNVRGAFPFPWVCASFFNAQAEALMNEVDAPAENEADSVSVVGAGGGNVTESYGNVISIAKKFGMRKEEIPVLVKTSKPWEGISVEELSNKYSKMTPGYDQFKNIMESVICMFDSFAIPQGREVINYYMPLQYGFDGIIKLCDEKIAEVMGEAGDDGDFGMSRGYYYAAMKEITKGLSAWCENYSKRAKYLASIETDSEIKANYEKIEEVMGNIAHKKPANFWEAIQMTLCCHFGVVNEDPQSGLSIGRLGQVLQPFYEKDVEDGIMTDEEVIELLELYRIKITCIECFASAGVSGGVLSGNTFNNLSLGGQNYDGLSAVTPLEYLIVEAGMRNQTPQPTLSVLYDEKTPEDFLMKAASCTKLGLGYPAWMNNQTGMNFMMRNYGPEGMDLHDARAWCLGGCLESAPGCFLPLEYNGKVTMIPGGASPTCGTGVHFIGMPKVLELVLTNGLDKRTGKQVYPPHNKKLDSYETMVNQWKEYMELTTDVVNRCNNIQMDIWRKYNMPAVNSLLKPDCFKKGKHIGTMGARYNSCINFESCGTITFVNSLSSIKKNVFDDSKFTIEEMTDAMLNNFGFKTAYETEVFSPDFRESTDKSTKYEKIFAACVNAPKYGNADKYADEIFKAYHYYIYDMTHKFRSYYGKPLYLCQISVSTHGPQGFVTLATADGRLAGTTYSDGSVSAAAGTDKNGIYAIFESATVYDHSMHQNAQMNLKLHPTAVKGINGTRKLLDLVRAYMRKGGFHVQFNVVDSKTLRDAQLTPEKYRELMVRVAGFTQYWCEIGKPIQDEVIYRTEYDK
Briefly: p-cresol formation, deuterium incorporation in D2O. The format is biochemical. The following applies: mere turnover.

T1 sequence (E1QXZ2 entry or part of it): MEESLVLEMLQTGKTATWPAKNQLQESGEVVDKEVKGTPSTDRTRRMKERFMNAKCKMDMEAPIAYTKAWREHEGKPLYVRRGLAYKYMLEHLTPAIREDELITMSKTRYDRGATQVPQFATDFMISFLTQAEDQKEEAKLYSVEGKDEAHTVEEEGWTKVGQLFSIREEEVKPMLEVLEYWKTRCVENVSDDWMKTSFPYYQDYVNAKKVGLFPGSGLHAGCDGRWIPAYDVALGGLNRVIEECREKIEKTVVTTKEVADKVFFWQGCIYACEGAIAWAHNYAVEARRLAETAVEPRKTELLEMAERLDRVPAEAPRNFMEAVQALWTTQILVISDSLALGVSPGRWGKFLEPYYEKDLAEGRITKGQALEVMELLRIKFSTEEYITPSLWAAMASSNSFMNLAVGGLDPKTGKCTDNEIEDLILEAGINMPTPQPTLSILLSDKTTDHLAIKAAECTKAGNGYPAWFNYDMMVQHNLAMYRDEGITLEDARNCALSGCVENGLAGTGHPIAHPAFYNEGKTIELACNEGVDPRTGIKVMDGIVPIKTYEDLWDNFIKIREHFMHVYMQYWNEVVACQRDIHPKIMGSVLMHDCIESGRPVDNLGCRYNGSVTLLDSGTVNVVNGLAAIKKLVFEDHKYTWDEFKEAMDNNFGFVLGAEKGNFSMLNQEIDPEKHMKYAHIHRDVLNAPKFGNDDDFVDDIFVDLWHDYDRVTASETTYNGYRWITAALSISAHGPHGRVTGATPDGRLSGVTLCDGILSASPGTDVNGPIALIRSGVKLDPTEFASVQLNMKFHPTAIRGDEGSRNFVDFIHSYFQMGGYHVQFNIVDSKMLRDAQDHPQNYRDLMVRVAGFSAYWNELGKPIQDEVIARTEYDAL

`CC(C(=O)O)c1c[nH]c2ccccc12` (racemic) [α-Me-I3A]: the “inhibition in assays with I3A” value in assay [1] (racemic) is given as “Both compounds are partial competitive inhibitors in assays with I3A”.
As for `O=C(O)Cc1ccc(O)cc1` [HPA, p-hydroxyphenylacetate], in assay [2], the “p-cresol formation, deuterium incorporation in D2O” value was “When HPA and Cs HPAD were incubated with D2O, only the expected D1-p-cresol”.
Consider `CC(C)(C(=O)O)c1c[nH]c2ccccc12` [α,α-Me2-I3A], for which, in assay [1], the “inhibition in assays with I3A” value is “Both compounds are partial competitive inhibitors in assays with I3A”.
